pIC50: −log10 of the molar value.
How the values were obtained:
human ALK2 R206H = target: T1, human ALK2 R206H (Homo sapiens, UniProt Q04771, R206H); test: Cell-based ALK2-R206H cell activity assay (Smad1-Ser463/Ser465 phosphorylation by AlphaLISA in HEK293-ALK2-R206H cells); conditions: read-out: Cell Line (Cell Assay IC50)
T1 construct: expressed in transfected cells; host or cells: HEK293 (ATCC CRL1573), lentivirus transduction, blasticidin selection
T1 sequence (Q04771 21-509 R206H): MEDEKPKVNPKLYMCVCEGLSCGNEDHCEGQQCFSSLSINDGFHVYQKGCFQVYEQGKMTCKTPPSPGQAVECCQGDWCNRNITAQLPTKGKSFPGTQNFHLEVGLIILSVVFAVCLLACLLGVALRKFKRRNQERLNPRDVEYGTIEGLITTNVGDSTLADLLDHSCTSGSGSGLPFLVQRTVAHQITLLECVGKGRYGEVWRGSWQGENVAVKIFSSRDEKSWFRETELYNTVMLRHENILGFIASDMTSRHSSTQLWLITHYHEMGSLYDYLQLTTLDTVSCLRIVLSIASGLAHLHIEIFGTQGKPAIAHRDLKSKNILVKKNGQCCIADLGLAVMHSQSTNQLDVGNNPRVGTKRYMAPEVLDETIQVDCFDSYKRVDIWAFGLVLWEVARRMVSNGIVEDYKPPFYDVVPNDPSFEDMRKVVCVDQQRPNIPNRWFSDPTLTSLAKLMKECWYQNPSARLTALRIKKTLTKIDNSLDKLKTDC
Outline: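 Stable HEK293 cells expressing C-terminally FLAG-tagged human ALK2 R206H (lentiviral, blasticidin-selected) were treated with compounds in 10-point, 3-fold dilutions from 10 μM or 1 μM top, in duplicate. Smad1 Ser463/Ser465 phosphorylation was read by AlphaLISA.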

[1] = target: T2, ALK2 R206H (GST-tagged mutant ALK2) (Homo sapiens, UniProt Q04771, R206H); test: ALK binding assay (LANTHASCREEN TR-FRET competitive binding, displacement of Kinase Tracer 178); conditions: ALK2 R206H, LANTHASCREEN TR-FRET competitive binding; read-out: Binding Assay (IC50)
T2 construct: purchased Carna Bioscience or ThermoFisher 09-148 or PV6232
T2 sequence (Q04771 21-509 R206H): T1 sequence (Q04771 21-509 R206H)

pIC50 (human ALK2 R206H)	pIC50 [1]	SMILES
6.30 to 7.00	7.30 to 8.00	CCN1CCN(c2ccc(-c3cc4c(N5CCN(C(=O)N6CCCC6)CC5)ccnn4c3)cc2)CC1 [Compound 327]
6.30 to 7.00	> 8.00	CCNC(=O)N1CCN(c2ccnn3cc(-c4ccc(N5CC6(C5)CN(C(C)C)C6)cc4)cc23)CC1 [Compound 328]
6.30 to 7.00	> 8.00	CCN1CC2CN(c3ccnn4cc(-c5ccc(N6CCN(C(C)C)CC6)cc5)cc34)CCN2C1=O (centres unmarked) [Compound 329]
6.30 to 7.00	> 8.00	CCN1C[C@@H]2CN(c3ccnn4cc(-c5ccc(N6CCN(C(C)C)CC6)cc5)cc34)CCN2C1=O [Compound 330]
> 7.00	> 8.00	CCN1CC2(C1)CN(c1ccc(-c3cc4c(N5CCN(C(=O)[C@@H]6C[C@H]6F)CC5)ccnn4c3)cc1)C2 [Compound 332]
> 7.00	> 8.00	CCN1CC2(C1)CN(c1ccc(-c3cc4c(N5CCN(C(=O)[C@H]6C[C@H]6F)CC5)ccnn4c3)cc1)C2 [Compound 333]
6.30 to 7.00	7.30 to 8.00	COCCN1CCN(c2ccc(-c3cc4c(N5CCN(C(=O)C6CC6)CC5)ccnn4c3)cc2)CC1 [Compound 334]
< 6.30	< 7.30	CCN1CCN(c2ccc(-c3cc4c(N5CCN(C(=O)[C@H]6C[C@@H](O)C6)CC5)ccnn4c3)cc2)CC1 [Compound 335]
> 7.00	> 8.00	CCN1CCN(c2ccc(-c3cc4c(N5CCN(C(=O)[C@H]6C[C@H](O)C6)CC5)ccnn4c3)cc2)CC1 [Compound 336]
> 7.00	> 8.00	CCN1CCC(c2ccc(-c3cc4c(N5CCN(C(=O)N6CC(O)C6)CC5)ccnn4c3)cc2)CC1 [Compound 337]
6.30 to 7.00	> 8.00	CCOC(=O)N1CCN(c2ccnn3cc(-c4ccc(N5CC6(C5)CN(C(C)C)C6)cc4)cc23)CC1 [Compound 338]
> 7.00	> 8.00	CCNC(=O)N1CCN(c2ccnn3cc(-c4ccc(C5CCN(C(C)C)CC5)cc4)cc23)C[C@H]1C [Compound 339]
> 7.00	> 8.00	CC(C)NC(=O)N1CCN(c2ccnn3cc(-c4ccc(C5CCN(C(C)C)CC5)cc4)cc23)CC1 [Compound 340]
> 7.00	> 8.00	CCCNC(=O)N1CCN(c2ccnn3cc(-c4ccc(C5CCN(C(C)C)CC5)cc4)cc23)CC1 [Compound 341]
6.30 to 7.00	> 8.00	O=C([C@H]1CC[C@H](O)CC1)N1CCN(c2ccnn3cc(-c4ccc(C5CNCCO5)cc4)cc23)CC1 (some centres unmarked) [Compound 343]
6.30 to 7.00	7.30 to 8.00	CCN1CCN(c2ccc(-c3cc4c(N5CCN(C(=O)N6CC(O)C6)CC5)ccnn4c3)cc2)CC1 [Compound 344]
> 7.00	> 8.00	CC(C)N1CCC(c2ccc(-c3cc4c(N5CCN(C(=O)C6CC6)CC5)ccnn4c3)cc2F)CC1 [Compound 345]
> 7.00	> 8.00	CC(C)NC(=O)N1CCN(c2ccnn3cc(-c4ccc(N5CCN(C(C)C)CC5)cc4)cc23)CC1 [Compound 348]
> 7.00	> 8.00	CC(C)N1CCN(c2ccc(-c3cc4c(N5CCN(C(=O)[C@@H]6C[C@H]6F)CC5)ccnn4c3)cc2)CC1 [Compound 349]
> 7.00	> 8.00	CC(C)N1CCN(c2ccc(-c3cc4c(N5CCN(C(=O)[C@H]6C[C@H]6F)CC5)ccnn4c3)cc2)CC1 [Compound 350]
> 7.00	> 8.00	CCNC(=O)N1CCN(c2ccnn3cc(-c4ccc(C5(O)CCCN(C(C)C)C5)cc4)cc23)CC1 (centres unmarked) [Compound 351]
6.30 to 7.00	> 8.00	CC(C)N1CCC(c2ccc(-c3cc4c(N5CCN(C(=O)NCCO)CC5)ccnn4c3)cc2)CC1 [Compound 353]
> 7.00	> 8.00	CCNC(=O)N1CCN(c2ccnn3cc(-c4ccc(C5CCN(C(C)C)CC5)c(F)c4)cc23)CC1 [Compound 354]
< 6.30	7.30 to 8.00	CCN1CCC(c2ccc(-c3cc4c(N5CCN(C(=O)C6CC6)CC5)ccnn4c3)cc2)C(F)(F)C1 (centres unmarked) [Compound 355]
> 7.00	> 8.00	CCOC(=O)N1CCN(c2ccnn3cc(-c4ccc(C5CCN(C(C)C)CC5)c(F)c4)cc23)CC1 [Compound 357]
< 6.30	> 8.00	O=C(C1CC1)N1CCN(c2ccnn3cc(-c4ccc(N5CCN(CC(F)F)CC5)cc4)cc23)CC1 [Compound 359]

pIC50 (human ALK2 R206H)	pIC50 [1]	SMILES
6.30 to 7.00	> 8.00	CCN1CCN(c2c(F)cc(-c3cc4c(N5CCN(C(=O)C6CC6)CC5)ccnn4c3)cc2F)CC1 [Compound 360]
6.30 to 7.00	> 8.00	CCN1CCN(c2ccc(-c3cc4c(N5CCN(C(=O)C6CC6(F)F)CC5)ccnn4c3)cc2)CC1 (centres unmarked) [Compound 361]
6.30 to 7.00	> 8.00	O=C(C1CC1)N1CCN(c2ccnn3cc(-c4ccc(N5CCNCC5)cc4OC(F)F)cc23)CC1 [Compound 363]
> 7.00	> 8.00	CC(C)N1CC[C@@H](c2ccc(-c3cc4c(N5CCN(C(=O)[C@H]6C[C@H](C#N)C6)CC5)ccnn4c3)cc2)C1 [Compound 364]
> 7.00	> 8.00	CC(C)N1CCC(c2ccc(-c3cc4c(N5CCN(C(=O)[C@H]6C[C@@H]6C#N)CC5)ccnn4c3)cc2)CC1 [Compound 365]
> 7.00	> 8.00	CC(C)N1CC[C@H](c2ccc(-c3cc4c(N5CCN(C(=O)[C@H]6C[C@H](C#N)C6)CC5)ccnn4c3)cc2)C1 [Compound 366]
> 7.00	> 8.00	CCN1CCN(c2ccc(-c3cc4c(N5CCN(C(=O)C6CC(C#N)C6)CC5)ccnn4c3)cc2)CC1 (centres unmarked) [Compound 367]
> 7.00	> 8.00	CC(C)N1CC[C@H](c2ccc(-c3cc4c(N5CCN(C(=O)N6CC(C#N)C6)CC5)ccnn4c3)cc2)C1 [Compound 368]
> 7.00	> 8.00	CC(C)N1CC[C@@H](c2ccc(-c3cc4c(N5CCN(C(=O)N6CC(C#N)C6)CC5)ccnn4c3)cc2)C1 [Compound 369]
> 7.00	> 8.00	CCN1CCC(c2ccc(-c3cc4c(N5CCN(C(=O)N6CC(C#N)C6)CC5)ccnn4c3)cc2)CC1 [Compound 370]
> 7.00	> 8.00	N#C[C@H]1CC[C@H](C(=O)N2CCN(c3ccnn4cc(-c5ccc(N6CCNCC6)cc5)cc34)CC2)CC1 [Compound 371]
< 6.30	7.30 to 8.00	O=C(C1CC1)N1CCN(c2ccnn3cc(-c4ccc(N5CCNC(C(F)(F)F)C5)cc4)cc23)CC1 (centres unmarked) [Compound 373]
> 7.00	> 8.00	N#C[C@H]1CC[C@H](C(=O)N2CCN(c3ccnn4cc(-c5ccc(C6CNCCO6)cc5)cc34)CC2)CC1 (some centres unmarked) [Compound 375]
> 7.00	> 8.00	CCN1CCN(c2ccc(-c3cc4c(N5CCN(C(=O)N6CC(C#N)C6)CC5)ccnn4c3)cc2)CC1 [Compound 376]
6.30 to 7.00	> 8.00	CC(C)N1CCC(c2ccc(-c3cc4c(N5CCN(C(=O)NCCC#N)CC5)ccnn4c3)cc2)CC1 [Compound 377]
6.30 to 7.00	> 8.00	CCN1CCC(c2ccc(-c3cc4c(N5CCN(C(=O)N6CCCCC6)CC5)ccnn4c3)cc2)CC1 [Compound 379]
> 7.00	> 8.00	CC(C)N1CCC(c2ccc(-c3cc4c(N5CCN(C(=O)NC6CCC6)CC5)ccnn4c3)cc2)CC1 [Compound 380]
> 7.00	> 8.00	CC(C)N1CCCC(c2ccc(-c3cc4c(N5CCN(C(=O)[C@H]6C[C@H](O)C6)CC5)ccnn4c3)cc2)C1 (some centres unmarked) [Compound 381]
> 7.00	> 8.00	CCN1CCC(c2ccc(-c3cc4c(N5CCN(C(=O)[C@H]6C[C@H](O)C6)[C@H](C)C5)ccnn4c3)cc2)CC1 [Compound 382]
> 7.00	> 8.00	CCN1CCC(c2ccc(-c3cc4c(N5CCN(C(=O)C6CC(C)(O)C6)CC5)ccnn4c3)cc2)CC1 (centres unmarked) [Compound 383]
> 7.00	> 8.00	CCN1CCC(c2ccc(-c3cc4c(N5CCN(C(=O)[C@H]6C[C@](C)(O)C6)CC5)ccnn4c3)cc2)CC1 [Compound 384]
> 7.00	> 8.00	CC(C)N1CCC[C@@H](c2ccc(-c3cc4c(N5CCN(C(=O)[C@H]6C[C@H](O)C6)CC5)ccnn4c3)cc2)C1 [Compound 385]
6.30 to 7.00	> 8.00	CC(C)N1CCC(c2ccc(-c3cc4c(N5CCN(C(=O)OCC6CC6)CC5)ccnn4c3)cc2)CC1 [Compound 386]
> 7.00	> 8.00	CC(C)N1CCC[C@H](c2ccc(-c3cc4c(N5CCN(C(=O)[C@H]6C[C@H](O)C6)CC5)ccnn4c3)cc2)C1 [Compound 387]
> 7.00	> 8.00	COC1(c2ccc(-c3cc4c(N5CCN(C(=O)C6CC6)CC5)ccnn4c3)cc2)CCCN(C(C)C)C1 (centres unmarked) [Compound 388]

SMILES	pIC50 (human ALK2 R206H)	pIC50 [1]
CCNC(=O)N1CCN(c2ccnn3cc(-c4ccc(C5(O)CCN(C(C)C)CC5)cc4)cc23)CC1 [Compound 352]	6.30 to 7.00	> 8.00
